pIC50: −log10 of the molar value. Where two headings read alike, the source gives them in different places.
Columns and labels:
[1] = target: T1, OATP1B1 (Homo sapiens, UniProt Q9Y6L6); assay: Static DDI risk assessment, OATP1B1 R-value; conditions: 1 + Iin,max,u/IC50; metabolite/combination additive; Imax,u for IV
T1 sequence (Q9Y6L6 1-691): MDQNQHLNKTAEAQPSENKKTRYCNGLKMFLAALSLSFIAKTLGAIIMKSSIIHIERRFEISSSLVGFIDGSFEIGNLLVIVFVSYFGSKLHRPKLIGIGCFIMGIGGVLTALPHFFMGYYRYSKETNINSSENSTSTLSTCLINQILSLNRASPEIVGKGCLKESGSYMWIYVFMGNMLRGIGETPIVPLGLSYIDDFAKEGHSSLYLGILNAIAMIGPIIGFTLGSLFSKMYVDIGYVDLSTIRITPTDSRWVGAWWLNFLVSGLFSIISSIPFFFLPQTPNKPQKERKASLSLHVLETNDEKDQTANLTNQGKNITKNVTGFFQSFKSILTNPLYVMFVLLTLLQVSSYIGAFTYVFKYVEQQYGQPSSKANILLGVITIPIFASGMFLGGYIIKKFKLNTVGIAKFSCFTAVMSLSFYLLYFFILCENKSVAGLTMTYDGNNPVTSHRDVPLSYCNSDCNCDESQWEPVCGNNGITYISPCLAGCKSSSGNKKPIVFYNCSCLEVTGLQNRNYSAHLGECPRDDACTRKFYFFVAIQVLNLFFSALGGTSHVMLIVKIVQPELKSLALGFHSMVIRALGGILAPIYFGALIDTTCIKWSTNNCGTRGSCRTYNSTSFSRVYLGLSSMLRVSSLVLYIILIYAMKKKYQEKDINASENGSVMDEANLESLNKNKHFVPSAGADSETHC

[2] = cited from earlier work; for Rosuvastatin AUC ratio: observed, rosuvastatin with vs without inhibitor; for Rosuvastatin AUC ratio / Cmax ratio Observed: ref Table S1; for Cmax ratio Observed: rosuvastatin with/without inhibitor, regimens as in table row
[3] = target: T1, OATP1B1; assay: In vitro OATP1B1 inhibition, transfected HEK293 cells, rosuvastatin probe; type: cell-based
[4] = target: T2, BCRP (Homo sapiens, UniProt Q9UNQ0); assay: In vitro BCRP inhibition, HEK293-BCRP membrane vesicles, rosuvastatin probe; type: biochemical
T2 sequence (Q9UNQ0 1-655): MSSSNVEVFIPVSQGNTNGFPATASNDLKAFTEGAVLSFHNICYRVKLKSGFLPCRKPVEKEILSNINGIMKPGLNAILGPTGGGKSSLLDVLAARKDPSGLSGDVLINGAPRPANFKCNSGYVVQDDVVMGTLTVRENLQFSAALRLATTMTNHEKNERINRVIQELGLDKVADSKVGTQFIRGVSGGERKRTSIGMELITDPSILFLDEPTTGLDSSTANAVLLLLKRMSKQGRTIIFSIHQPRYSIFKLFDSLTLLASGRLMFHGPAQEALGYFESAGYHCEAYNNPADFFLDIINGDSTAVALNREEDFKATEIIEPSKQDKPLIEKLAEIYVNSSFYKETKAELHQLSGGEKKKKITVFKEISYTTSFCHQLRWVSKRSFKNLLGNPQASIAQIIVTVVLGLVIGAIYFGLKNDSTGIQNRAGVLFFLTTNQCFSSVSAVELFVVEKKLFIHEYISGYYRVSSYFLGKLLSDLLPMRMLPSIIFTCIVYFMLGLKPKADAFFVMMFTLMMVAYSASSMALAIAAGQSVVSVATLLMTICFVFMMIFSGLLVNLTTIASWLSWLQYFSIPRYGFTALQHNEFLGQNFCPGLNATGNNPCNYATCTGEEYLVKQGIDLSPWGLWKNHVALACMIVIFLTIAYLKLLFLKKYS

[5] = target: T3, OATP1B3 (Homo sapiens, UniProt Q9NPD5); assay: In vitro OATP1B3 inhibition, transfected HEK293 cells, rosuvastatin probe; type: cell-based
T3 sequence (Q9NPD5 1-702): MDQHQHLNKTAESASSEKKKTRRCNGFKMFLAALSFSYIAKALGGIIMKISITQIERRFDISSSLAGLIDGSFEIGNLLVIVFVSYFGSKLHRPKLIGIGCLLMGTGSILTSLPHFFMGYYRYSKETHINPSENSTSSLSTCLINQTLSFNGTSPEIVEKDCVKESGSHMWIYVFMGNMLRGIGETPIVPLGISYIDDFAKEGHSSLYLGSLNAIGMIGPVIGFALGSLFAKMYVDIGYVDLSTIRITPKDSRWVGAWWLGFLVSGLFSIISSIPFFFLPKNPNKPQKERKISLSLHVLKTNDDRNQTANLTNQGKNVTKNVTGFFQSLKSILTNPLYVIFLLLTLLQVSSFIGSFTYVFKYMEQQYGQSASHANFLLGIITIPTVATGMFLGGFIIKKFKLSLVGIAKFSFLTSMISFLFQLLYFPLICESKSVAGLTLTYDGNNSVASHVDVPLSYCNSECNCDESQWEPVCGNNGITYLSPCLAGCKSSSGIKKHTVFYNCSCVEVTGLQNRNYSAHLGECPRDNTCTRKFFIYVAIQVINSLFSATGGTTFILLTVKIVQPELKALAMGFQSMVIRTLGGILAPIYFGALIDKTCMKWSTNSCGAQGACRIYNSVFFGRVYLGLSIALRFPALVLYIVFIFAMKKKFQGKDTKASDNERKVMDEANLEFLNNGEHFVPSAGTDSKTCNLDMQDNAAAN

[6] = target: T3, OATP1B3; assay: Static DDI risk assessment, OATP1B3 R-value; conditions: 1 + Iin,max,u/IC50; metabolite/combination additive; Imax,u for IV
[7] = read-out: BCRP IC50, membrane vesicles, rosuvastatin 0.2 µM probe

SMILES	1B1 R-Value [1]	Rosuvastatin AUC ratio [2]	pIC50 [3]	pIC50 [4]	pIC50 [5]	Cmax ratio Observed [2]	1B3 R-Value [6]	pIC50 [4, 7]	Rosuvastatin AUC ratio ([2]; listed as darolutamide)	IC50 at 1 min ([5]; human, HEK293 cells transfected with OATP1B3, pH 7.4, probe rosuvastatin 0.3 µM) [µM]	reduction of renal clearance of rosuvastatin ([2]; probenecid 1000 mg) [%]
O=c1ccc2ccc(OCCCCN3CCN(c4cccc5sccc45)CC3)cc2[nH]1 [Brexpiprazole]	1.00	1.12	4.88	4.00	–	–	–	–	–	–	–
CNC(=O)c1ccc(-c2cnc3ncc(Cc4ccc5ncccc5c4)n3n2)cc1F [Capmatinib]	1.35	2.03	5.48	6.16	4.84	3.05	1.08	–	–	–	–
CC[C@H]1OC(=O)[C@H](C)[C@@H](O[C@H]2C[C@@](C)(OC)[C@@H](O)[C@H](C)O2)[C@H](C)[C@@H](O[C@@H]2O[C@H](C)C[C@H](N(C)C)[C@H]2O)[C@](C)(OC)C[C@@H](C)C(=O)[C@H](C)[C@@H](O)[C@]1(C)O [Clarithromcyin]	1.99	1.58	–	–	–	–	1.35	3.39	–	–	–
COC(=O)N[C@H](C(=O)N1CCC[C@H]1c1nc(-c2ccc(-c3ccc(-c4c[nH]c([C@@H]5CCCN5C(=O)[C@@H](NC(=O)OC)C(C)C)n4)cc3)cc2)c[nH]1)C(C)C [Daclatasvir]	1.18	1.47	–	5.96	–	–	1.08	–	–	–	–
CC(O)c1cc(C(=O)N[C@@H](C)Cn2ccc(-c3ccc(C#N)c(Cl)c3)n2)[nH]n1 (some centres unmarked) [Darolutamide]	1.09	5.50	–	7.05	4.69	5.50	1.02	–	> 5	–	–
C[C@](O)(COc1ccc(C#N)cc1)C(=O)Nc1ccc(C#N)c(C(F)(F)F)c1 [Enobosarm]	1.00	1.18	–	5.96	–	–	–	–	–	–	–
COc1cc(Nc2ncc(F)c(Nc3ccc4c(n3)N(COP(=O)(O)O)C(=O)C(C)(C)O4)n2)cc(OC)c1OC [Fostamatinib]	–	1.95	6.05	5.70	5.13	1.90	–	–	–	–	–
CC(C)c1noc(N2CCC(COc3ccc(-c4ccc(S(C)(=O)=O)cc4)nc3)CC2)n1 [GSK1292263]	1.03	1.39	< 4.52	5.52	–	–	–	–	–	–	–
Cc1ccc(C)c(OCCCC(C)(C)C(=O)O)c1 [Gemfibrozil]	2.60	1.88	–	3.53	5.00	2.21	1.15	–	–	–	–
CC(O)C(C)n1ncn(-c2ccc(N3CCN(c4ccc(OCC5COC(Cn6cncn6)(c6ccc(Cl)cc6Cl)O5)cc4)CC3)cc2)c1=O (centres unmarked) [Hydroxy‐itraconazole]	–	–	5.85	–	–	–	–	–	–	–	–
CC[C@H](Nc1ncnc2[nH]cnc12)c1nc2cccc(F)c2c(=O)n1-c1ccccc1 [Idelalisib]	1.19	–	5.50	4.26	5.15	–	–	–	–	–	–
CC(=O)c1cc(C(=O)N[C@@H](C)Cn2ccc(-c3ccc(C#N)c(Cl)c3)n2)[nH]n1 [Keto‐darolutamide]	–	–	–	–	–	–	–	6.25	–	–	–
COc1ccnc(C[S+]([O-])c2nc3ccc(OC(F)F)cc3[nH]2)c1OC (centres unmarked) [Pantoprazole]	1.01	–	< 3.30	5.21	–	–	–	–	–	> 500	–
O=C(O)C[C@H]1CC[C@H](c2ccc(-c3ccc(Nc4ccc(C(F)(F)F)nc4)cn3)cc2)CC1 [Pradigastat]	1.03	0.96	5.83	6.15	–	–	1.01	–	–	–	–
CCCN(CCC)S(=O)(=O)c1ccc(C(=O)O)cc1 [Probenecid]	1.99	–	–	3.67	3.47	–	1.11	–	–	–	~80
COc1cc(Nc2ncc(F)c(Nc3ccc4c(n3)NC(=O)C(C)(C)O4)n2)cc(OC)c1OC [R406]	–	–	–	–	–	–	–	7.19	–	–	–
CO[C@H]1/C=C/O[C@@]2(C)Oc3c(C)c(O)c4c(O)c(c(/C=N/N5CCN(C)CC5)c(O)c4c3C2=O)NC(=O)/C(C)=C\C=C\[C@H](C)[C@H](O)[C@@H](C)[C@@H](O)[C@@H](C)[C@H](OC(C)=O)[C@@H]1C [Rifampicin]	10.20	–	6.54	–	6.14	–	4.65	–	–	–	–
CCCc1nc2c(C)cc(-c3nc4ccccc4n3C)cc2n1Cc1ccc(-c2ccccc2C(=O)O)cc1 [Telmisartan]	1.01	1.20	5.51	6.21	–	–	1.03	–	–	–	–
COC[C@H]1C[C@@H](c2ncc(-c3ccc4c(c3)COc3cc5c(ccc6nc([C@@H]7CC[C@H](C)N7C(=O)[C@@H](NC(=O)OC)C(C)C)[nH]c65)cc3-4)[nH]2)N(C(=O)[C@H](NC(=O)OC)c2ccccc2)C1 [Velpatasvir]	1.00	2.59	–	7.05	–	2.50	1.02	–	–	–	–
CC(C)(C)c1ccc(S(=O)(=O)Nc2ccc(Cl)cc2C(=O)c2cc[n+]([O-])cc2)cc1 [Vercirnon]	2.02	0.99	5.68	5.48	–	–	–	–	–	–	–

Source: PMC8452302 (CPT: Pharmacometrics & Systems Pharmacology, 2021)
